The source of these data is patent publication US20180228815A1, “NARINGENIN AND ASIATIC ACID COMBINATION TREATMENT OF CANCERS” (The Chinese University of Hong Kong, priority 2016, published 2018).

One experiment concerns B16F10 tumor cells. Put plainly: TGF-beta1-induced VEGF mRNA expression by tumor cells (real-time PCR). It counts as cell-based. For orientation: In qPCR the cycle at which signal appears reflects the starting amount.
In another experiment the test system is B16F10 melanoma. Put plainly: B16F10 melanoma syngeneic mouse tumor model, tumor growth. It counts as in vivo. The settings on record: for tumor growth at higher dosages: dosages higher than 10 mg/kg AA or 50 mg/kg NG; for B16F10 melanoma volume and weight: monotherapy, different doses; for melanoma progression: single treatment, 10 mg/kg AA or 50 mg/kg NG. The text has this:
B16F10 melanoma syngeneic tumor model was generated in C57/Bl6 male mice (aged week 8 and 25 g body weight) via subcutaneous injection of 1×10^6 B16F10 cells. Lewis Lung Cancer syngeneic tumor model was also generated in C57/Bl6 male mice via subcutaneous injection of 2×10^6 luciferase-labeled LLC cells. When average tumor size reached 50 mm^3, mice were randomly divided into four groups respectively receiving drug administration as described below. Tumor progression was monitored by calculating tumor volume with vernier calipers as well as by bioluminescence imaging with IVIS Spectrum system (Xenogen, PerkinElmer, Inc., MA, USA). All animal experiments were carried out by a protocol approved by Animal Ethics Experimental Committee at the Chinese University of Hong Kong. Two TCM-based drugs were used in this study, including asiatic acid (95% HLPC-purified, Nanning, China) and naringenin (98% HLPC-purified, Xian, China). Both drugs were dissolved in DMSO and Tween-80 at the ratio of 9:1, which was further diluted 10 times with saline as working solution. […] Studies were carried out by a protocol approved by Animal Ethics Experimental Committee at the Chinese University of Hong Kong.

The test system of a further experiment is p-Smad3, Smad7. Put plainly: Western blot of p-Smad3 and Smad7 in bone marrow-derived NK cells with TGF-β1. The conditions noted are these: 10 μM of AA, 100 μM of NG; TGF-β1 (5 ng/ml). The experiment is classed as cell-based, mouse. The protocol: FIGS. 14A-14C. […] (FIGS. 14A, 14B) Two-color immunofluorescence detecting NK1.1+ p-Smad3+ and NK1.1+ Smad7+ NK cells in LLC tumor microenvironment. NK1.1+ cells (green), p-Smad3+ or Smad7+ cells (red), DAPI (blue). […] Scale bar, […]. […] To further explore the mechanism of combination therapy facilitating NK cell immunity against cancer in TGF-β rich microenvironment, 10 μM of AA and 100 μM of NG (according to the molar ratio in vivo) were applied on bone marrow-derived NK cells in vitro. […] After euthanasia, bone marrow cells were isolated from C57BL/6 mice following the protocol as previously described (10). Bone marrow cells were then seeded at the density of 1×10^6 cells/ml in MEMα medium (Gibco, Thermo Fisher Scientific Inc., MA, USA) containing 10% FBS supplemented with 1 ng/ml IL-7, 10 ng/ml Flt3L, 30 ng/ml SCF, 50 ng/ml IL-15 (Peprotech, NJ, USA) and […] β-Mercaptoethanol (Gibco, Thermo Fisher Scientific Inc., MA, USA) and cultured for 4 days. Then transferred cells to MEMα medium containing 10% FBS supplemented with 50 ng/ml IL-15, 20 ng/ml IL-2 and […] β-Mercaptoethanol to induce NK cells maturation for another 3 days. Tumor tissues and cultured NK cells were lysed with ice-cold RIPA buffer, and then protein was isolated as previously described (2 6). Membranes were blocked with 5% BSA in PBS for 1 hour at room temperature before incubated with primary antibodies against Smad7, Id2, β-actin (Santa Cruz Biotechnology, Santa Cruz, Calif., USA), p-Smad3 and IRF2 (Cell signaling, MA, USA) overnight at 4° C., subsequently incubated with IRDye 800-conjugated secondary antibodies (Rockland immunochemicals, PA, USA). Target protein expression was then detected by LiCor/Odyssey infrared image system (LI-COR Biosciences, NE, USA) and analyzed with Image J software (NIH, Bethesda, Md., USA).
(In general: Immunoblotting shows a protein as a band on a membrane.)

In the next experiment the test system is Id2, IRF2. Put plainly: Id2 and IRF2 expression in bone marrow-derived NK cells with TGF-β1 (real-time PCR, western blot). The experiment is classed as cell-based, mouse. The conditions noted are these: bone marrow-derived NK cells in vitro. The procedure:
After euthanasia, bone marrow cells were isolated from C57BL/6 mice following the protocol as previously described (10). Bone marrow cells were then seeded at the density of 1×10^6 cells/ml in MEMα medium (Gibco, Thermo Fisher Scientific Inc., MA, USA) containing 10% FBS supplemented with 1 ng/ml IL-7, 10 ng/ml Flt3L, 30 ng/ml SCF, 50 ng/ml IL-15 (Peprotech, NJ, USA) and […] β-Mercaptoethanol (Gibco, Thermo Fisher Scientific Inc., MA, USA) and cultured for 4 days. Then transferred cells to MEMα medium containing 10% FBS supplemented with 50 ng/ml IL-15, 20 ng/ml IL-2 and […] β-Mercaptoethanol to induce NK cells maturation for another 3 days. […] Tumor tissues and cultured NK cells were lysed with ice-cold RIPA buffer, and then protein was isolated as previously described (2 6). Membranes were blocked with 5% BSA in PBS for 1 hour at room temperature before incubated with primary antibodies against Smad7, Id2, β-actin (Santa Cruz Biotechnology, Santa Cruz, Calif., USA), p-Smad3 and IRF2 (Cell signaling, MA, USA) overnight at 4° C., subsequently incubated with IRDye 800-conjugated secondary antibodies (Rockland immunochemicals, PA, USA). Target protein expression was then detected by LiCor/Odyssey infrared image system (LI-COR Biosciences, NE, USA) and analyzed with Image J software (NIH, Bethesda, Md., USA).

Regarding `O=C1CC(c2ccc(O)cc2)Oc2cc(O)cc(O)c21` (stereo not shown) [NG, 5,7-dihydroxy-2-(4-hydroxyphenyl)chroman-4-one], the “TGF-beta1-induced angiogenesis (VEGF mRNA expression), inhibition by AA with NG added” value in the experiment on B16F10 tumor cells (B16F10 with TGF-beta1 (2 ng/ml), NG from 0.5 to 250 uM added to AA at luM) is given as “enhanced”. Moreover, in the experiment with B16F10 melanoma, the “tumor growth at higher dosages” value is listed as “no further significant improvement”; the “B16F10 melanoma volume and weight” value is “Dose-dependent inhibitory effect”; the melanoma progression result is recorded as “effectively inhibited”. Moreover, in the experiment with p-Smad3, Smad7, the “TGF-β1-increased phosphorylation level of Smad3” value is reported as “attenuated” and the “TGF-β1-induced suppression of Smad7 expression” value is “capable of restoring”. Besides, in the experiment with Id2, IRF2, the “TGF-β1-induced suppression of IRF2” value is given as “significantly reduced” and the “TGF-β1-induced suppression of Id2” value is recorded as “significantly reduced”.
On to `C[C@H]1[C@H](C)CC[C@]2(C(=O)O)CC[C@]3(C)C(=CC[C@@H]4[C@@]5(C)C[C@@H](O)[C@H](O)[C@@](C)(CO)[C@@H]5CC[C@]43C)[C@H]12` [AA, Asiatic acid], for which the “TGF-beta1-induced angiogenesis (VEGF mRNA expression)” value in the experiment on B16F10 tumor cells (B16F10 cultured with TGF-beta1 (2 ng/ml), AA at luM) is “significantly inhibit”. In the experiment on B16F10 melanoma, the “tumor growth at higher dosages” value was “no further significant improvement”; the “B16F10 melanoma volume and weight” value was “Dose-dependent inhibitory effect”; the melanoma progression result is recorded as “effectively inhibited”. In the experiment on p-Smad3, Smad7, the “TGF-β1-increased phosphorylation level of Smad3” value is given as “attenuated” and the “TGF-β1-induced suppression of Smad7 expression” value is “capable of restoring”. Besides, in the experiment on Id2, IRF2, the “TGF-β1-induced suppression of IRF2” value is recorded as “significantly reduced” and the “TGF-β1-induced suppression of Id2” value is listed as “significantly reduced”.
